Results published in patent US5164391A, “Hydantoin derivatives for treating complications of diabetes and circulatory diseases” (priority 1989, dated 1992).
Like-named read-outs stand apart in the source and are kept apart here.

Columns and labels:
left atrium = test: Action to heart of guinea pig: left atrium (contraction power); set-up: species or system Hartley guinea pigs
Description: (§1) Hartley guinea pigs (body weight of 300-400 g) were rendered unconscious by knocking their head and fixed upwardly to exenterate their heart. […] The vessel was previously filled with the Krebs-Henseleit solution and the said mixed gas was continuously fed therein.
(§2) Samples were prepared by separating from a ventricular muscle a right and left atrium, along an auricloventricular furrow or groove from the center-line of the right and left auricles.
The atrium was driven by contacting it with a platinum bipolar electrode attached to the cellfin and by stimulating the same with a rectangular pulse (1 Hz, 1 msec, 10 V). A movement of the sample was recorded by connecting the sample to a recorder through a silk thread and a FD pick-up.

right atrium = test: Action to heart of guinea pig: right atrium (pulsations); set-up: species or system Hartley guinea pigs; details: for inhibition at 10 µM / inhibition at 100 µM: Cavia porcellus, read-out: Pulsation;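 on Pulsation: Dash means no recognizable influence on pulsation rate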
Description: as §1, §2
A contraction of the sample, due to a compound to be tested, was recorded through an FD pick-up. Concurrently, pulsations were input to a measuring unit to count and record number of the pulsations.

platelet = test: Inhibition of platelet agglutination (rat PRP); assay type: cell-based
Description: A blood was taken from a descending aorta of the rat anesthetized with ethyl ether. To the blood, 3.8% aqueous sodium citrate was added by a volume of 1/3 and the resulting solution was centrifuged (1500 rpm) at 4° C. for 10 minutes to obtain a supernatant which was designated as "PRP (platelet rich plasma)". The remaining residue was centrifuged (3000 rpm) at 4° C. for 10 minutes to obtain a supernatant which was designated as "PPP (platelet poor plasma)". A stirrer bar and PRP (267 μl) were inserted in a cell and PPP (more than 300 μl) was charged in another cell. A transmissivity to PRP and PPP was measured and set as "0%" for the former case and as "100%" for the latter case.
After a preincubation for 1 minute, a compound to be tested was added by 3 μl and then an agglutination causing substance (collagen or ADP) was added by 30 μl at a time lapsed of 1 minute from the addition of testing compound. For a control group, 3 μl of dimethylsulfoxide was added, instead of the testing compound. A maximum value in transmissivity change after the addition of agglutination causing substance was determined and made as a platelet agglutination rate (%).

thoracic aorta = test: Action to the aorta of guinea pig (relaxation of contracted spiral samples); set-up: species or system Hartley guinea pigs; details: Cavia porcellus
Text: Hartley guinea pigs (body weight of 300-500 g) were rendered unconscious fainted by knocking their head and fixed upwardly. A thoracic aorta was taken out to prepare spiral samples, each having size of about 2×25 mm. The sample was suspended in a Magnus tube under a load of about 1 g and upper end of the sample was connected through a silk thread to a FD pick-up to record a change in isometric tension.
Composition of Krebs-Henseleit solution:
Prior to the experiment, the sample in the Magnus tube was left to stand, as it was, for 60 to 90 minutes and in such period of time, the Krebs-Henseleit solution was exchanged to fresh one at an interval of 20 to 30 minutes.
When the contraction of the sample became constant, the compound to be tested was gradually added in a amount starting at a concentration of 10^-8, to […] to observe the contraction of the sample. Finally, papaverine was added therein, so as to make its final concentration of 2×10^-5 g/ml, to check and record also the relaxing reaction or atony caused by the papaverine.

aldose reductase = aldose reductase (Rattus norvegicus, UniProt P07943); test: Inhibition to aldose reductase (method of Kador et al); assay type: biochemical; details: read-out: IC50 (50% Inhibitory Concentration)
Text: An ability for reducing or inhibiting activity of aldose reductase was checked, in accordance with the method of Kador et al as described in "Biophys.

[1] = Cavia porcellus, read-out: Contraction
[2] = agglutination caused by collagen, read-out: IC50 Collagen
[3] = 10^-5 (M), left atrium, 32°±1° C.
[4] = Cavia porcellus, 10^-4 (M), left atrium, 32°±1° C., read-out: Contraction
[5] = 10^-4 (M), right atrium, 32°±1° C.
[6] = 10^-5 (M), right atrium, 32°±1° C.
[7] = contraction by KCl 2.5×10^-2 M, 37° C., read-out: IC50 KCl contraction (50% relaxing)
[8] = contraction by norepinephrine 10^-6 g/ml, 37° C., read-out: IC50 N.E. contraction (50% relaxing)
[9] = agglutination caused by ADP, N.D. : not detected, read-out: IC50 ADP

Row | Structure (SMILES) | IC50 (platelet; [2]) | Contraction (left atrium; [3]) | inhibition at 100 µM (left atrium; [4]) | inhibition at 100 µM (right atrium; [5]) | IC50 (thoracic aorta; [7]) | IC50 (thoracic aorta; [8]) | IC50 (aldose reductase) | Pulsation (right atrium; [6]) | other results
1 | CC(C)NCC(O)COc1cccc2ccccc12 (stereo not drawn) [A, Propranolol, reference compound] |  |  |  |  |  |  |  |  | inhibition at 10 µM (left atrium; [1]): > 20%; inhibition at 100 µM (left atrium; [1]): > 20%; inhibition at 10 µM (right atrium): > 20%; inhibition at 100 µM (right atrium): > 20%
2 | CC(=O)Oc1ccccc1C(=O)O [Aspirin, reference compound] | 210 µM |  |  |  |  |  |  |  | 
3 | CC(C(O)c1ccc(O)cc1)N1CCC(Cc2ccccc2)CC1 (stereo not drawn) [B, Ifenprodil, reference compound] |  | - | 10 to 20% | > 20% |  |  |  |  | inhibition at 10 µM (right atrium; [6]): > 20%
4 | COc1cc(/C=C/C(=O)N2CCN(CC(=O)N3CCCC3)CC2)cc(OC)c1OC [Cinepazide, reference compound] |  |  |  |  |  |  |  |  | IC50 (thoracic aorta; read-out: IC50 KCl contraction (50% relaxing)): 2000 µM; IC50 (thoracic aorta; read-out: IC50 N.E. contraction (50% relaxing)): 1000 µM
5 | NNC(=O)[C@@H]1C[C@]2(NC(=O)NC2=O)c2cc(F)ccc2O1 [Example 1, (2S,4S)-6-Fluoro-2',5'-dioxospiro[chroman-4,4'-imidazolidine]-2-carbohydrazide] |  |  |  |  | 95 µM | 2 µM | 0.038 µM |  | 
6 | CNNC(=O)[C@@H]1C[C@]2(NC(=O)NC2=O)c2cc(F)ccc2O1 [Example 2, (2S,4S)-6-Fluoro-2',5'-dioxospiro[chroman-4,4'-imidazolidine]-2-(N'-methyl)carbohydrazide] |  |  |  |  | > 1000 µM | > 1000 µM | 0.3 µM |  | 
7 | O=C1NC(=O)[C@@]2(C[C@@H](C(=O)NNc3ccccc3)Oc3ccc(F)cc32)N1 [Example 3, (2S,4S)-6-Fluoro-2',5'-dioxospiro[chroman-4,4'-imidazolidine]-2-(N'-phenyl)carbohydrazide] | 140 µM | - | 10 to 20% |  | 30 µM | 0.8 µM | 0.022 µM | - | Pulsation (right atrium; [5]): -
8 | O=C1NC(=O)[C@@]2(C[C@@H](C(=O)NNc3ccc(Cl)cc3)Oc3ccc(F)cc32)N1 [Example 4, (2S,4S)-6-Fluoro-2',5'-dioxospiro[chroman-4,4'-imidazolidine]-2-(N'-4-chlorophenyl)carbohydrazide] | 180 µM | - | 10 to 20% | 10 to 20% | > 1000 µM | > 1000 µM | 0.026 µM | - | 
9 | COc1ccc(NNC(=O)[C@@H]2C[C@]3(NC(=O)NC3=O)c3cc(F)ccc3O2)cc1 [Example 5, (2S,4S)-6-Fluoro-2',5'-dioxospiro[chroman-4,4'-imidazolidine]-2-(N'-4-methoxyphenyl)carbohydrazide] | 26 µM | - | 10 to 20% |  | 5 µM | 30 µM | 0.044 µM | - | Pulsation (right atrium; [5]): -
10 | O=C1NC(=O)[C@@]2(C[C@@H](C(=O)NNc3cccc4ccccc34)Oc3ccc(F)cc32)N1 [Example 6, (2S,4S)-6-Fluoro-2',5'-dioxospiro[chroman-4,4'-imidazolidine]-2-(N'-1-naphthyl)carbohydrazide] | 230 µM | - | 10 to 20% | 10 to 20% |  |  | 0.013 µM | - | 
11 | O=C1NC(=O)[C@@]2(C[C@@H](C(=O)NO)Oc3ccc(F)cc32)N1 [Example 7, (2S,4S)-6-Fluoro-2',5'-dioxospiro[chroman-4,4'-imidazolidine]-2-hydroxamic acid] |  |  |  |  | > 1000 µM | > 1000 µM | 0.037 µM |  | 
12 | O=C1NC(=O)[C@@]2(C[C@@H](C(=O)NCCN3CCN(CC=Cc4ccccc4)CC3)Oc3ccc(F)cc32)N1 [Example 8, (2S,4S)-N-[2-(4-Cinnamylpiperazin-1-yl)ethyl]-6-fluoro-2',5'-dioxospiro[chroman-4,4'-imidazolidine]-2-carboxamide] | 250 µM | - | 10 to 20% | 10 to 20% | > 1000 µM | > 1000 µM | 0.22 µM | - | 
13 | COc1ccccc1N1CCN(CCNC(=O)[C@@H]2C[C@]3(NC(=O)NC3=O)c3cc(F)ccc3O2)CC1 [Example 9, (2S,4S)-N-{2-[4-(2-Methoxyphenyl)piperazin-1-yl]ethyl}-6-fluoro-2',5'-dioxospiro[chroman-4,4'-imidazolidine]-2-carboxamide] | 660 µM | - | 10 to 20% |  | > 1000 µM | > 1000 µM | 0.24 µM | - | Pulsation (right atrium; [5]): -
14 | O=C1NC(=O)[C@@]2(C[C@@H](C(=O)NCCN3CCN(C(c4ccccc4)c4ccccc4)CC3)Oc3ccc(F)cc32)N1 [Example 10, (2S,4S)-N-{2-[4-(Diphenylmethyl)piperazin-1-yl]ethyl}-6-fluoro-2',5'-dioxospiro[chroman-4,4'-imidazolidine]-2-carboxamide] | 410 µM | - |  | > 20% | 1.8 µM | 100 µM | 0.15 µM |  | Contraction (left atrium; 10^-4 (M), left atrium, 32°±1° C.): -; inhibition at 10 µM (right atrium; [6]): 10 to 20%; IC50 (platelet; [9]): 700 µM
15 | O=C1NC(=O)[C@@]2(C[C@@H](C(=O)NCCN3CCC(Cc4ccccc4)CC3)Oc3ccc(F)cc32)N1 [Example 11, (2S,4S)-N-[2-(4-Benzylpiperidin-1-yl)ethyl]-6-fluoro-2'5'-dioxospiro[chroman-4,4'-imidazolidine]-2-carboxamide] | 83 µM | - | 10 to 20% | > 20% | 1.9 µM | 0.1 µM | 1.9 µM |  | inhibition at 10 µM (right atrium; [6]): 10 to 20%; IC50 (platelet; [9]): 370 µM
16 | COc1cc(C=CC(=O)N2CCN(CCNC(=O)[C@@H]3C[C@]4(NC(=O)NC4=O)c4cc(F)ccc4O3)CC2)cc(OC)c1OC [Example 12, (2S,4S)-N-{2-[4-(3,4,5-Trimethoxycinnamoyl)piperazin-1-yl]ethyl}-6-fluoro-2',5'-dioxospiro[chroman-4,4'-imidazolidine]-2-carboxamide] |  | - | 10 to 20% |  | 160 µM | 30 µM | 0.15 µM | - | Pulsation (right atrium; [5]): -
17 | O=C1NC(=O)[C@@]2(C[C@@H](C(=O)NCCO[N+](=O)[O-])Oc3ccc(F)cc32)N1 [Example 13, (2S, 4S)-N-(2-Nitroxyethyl)-6-fluoro-2',5'-dioxospiro[chroman-4,4'-imidazolidine]-2-carboxamide] | 240 µM |  |  |  | 60 µM | 20 µM | 0.19 µM |  | 
18 | O=C1NC(=O)[C@@]2(C[C@@H](C(=O)NCCn3ccnc3)Oc3ccc(F)cc32)N1 [Example 14, (2S,4S)-N-{2-[(Imidazol-1-yl)ethyl]}-6-fluoro-2',5'-dioxospiro[chroman-4,4'-imidazolidine]-2-carboxamide] |  |  |  |  | > 1000 µM | > 1000 µM | 0.65 µM |  | 
19 | COc1ccc2c(c1)c(CC(=O)O)c(C)n2C(=O)c1ccc(Cl)cc1 [Indomethacin, reference compound] | 68 µM |  |  |  |  |  |  |  | 
